Laboratory results as given in patent publication EP3050567B1, “COMPOUND FOR ACTIVATING AMPK AND USES THEREOF” (Energenesis Biomedical Co., Ltd., priority 2013, dated 2015).

Experiments:
[1] = tested on: 3T3 cells; test: Fibroblast proliferation assay (trypan blue cell counting); format: cell-based, mouse; conditions: 72 h, mean±SEM of three experiments
Description: (§1) […] fibro blast cell line 3T3 were cultured in high-glucose Dulbecco's modified Eagle's medium (DMEM) containing 10% fetal bovine serum (FBS), 4 mM L-glutamine, 2 mM sodium pyruvate and 1% penicillin/streptomycin (Invitrogen GibcoBRL, Carlsbad, Calif., USA) at 37°C under 5% CO2. For cell proliferation assay, 3T3 cells were plated at 1 × 10^5 per well (6-well plate). Twenty-four hours after plating, cells were treated with indicated concentration of adenine for 72 h and the number of viable cells was counted. Cells were detached using trypsin-EDTA solution and stained with trypan blue. The living cells were counted using hemocytometer.

[2] = tested on: Hep G2; test: Cancer cell growth inhibition assay, Hep G2; format: cell-based; conditions: Homo sapiens; HepG2 cell proliferation, 72 h, cell counting
Description: as §1, with “liver hepatocellular carcinoma” for “fibro blast”, “Hep G2, human breast adenocarcinoma cell line MCF7 and human colon adenocarcinoma grade II cell line HT29 were used to evaluate the effects of adenine on cell proliferation. Those cell lines were obtained from ATCC and” for “3T3”, “Cells” for “For cell proliferation assay, 3T3 cells”, “then followed by cell counting.” for “the number of viable cells was counted.”

[3] = tested on: AMPK; test: AMPK activation assay (phospho-AMPK Thr172 western blot) in 3T3 cells; format: cell-based, mouse; conditions: 30 min
Description: Effects of adenine on AMPK activation were evaluated based on the phosphorylation of AMPK protein upon adenine treatment. Mouse muscle cell C2C12, mouse fibroblast 3T3, human liver carcinoma cell Hep G2, human breast adenocarcinoma cell line MCF7 and human colon adenocarcinoma grade II cell line HT29, human umbilical vein endothelial cell HUVEC, Human acute monocytic leukemiacell THP1, human macrophage cell U937, murine microglia cell BV-2, and mouse neuroblastoma cell Neuro2A and dermal papilla cell were cultured in high-glucose Dulbecco's modified Eagle's medium (DMEM) containing 10% fetal bovine serum (FBS), 4 mM L-glutamine, 2 mM sodium pyruvate and 1% penicillin/streptomycin (Invitrogen GibcoBRL, Carlsbad, Calif., USA) at 37°C, under 5% CO2. Cells were plated at 3 × 10^5 per well in 6-well plates. Twenty-four hours after plating, adenine was added to the culture media as indicated. After 30 min cells were lysed and subject to western blot analysis. Equal amount of protein from each sample was separated by SDS-PAGE and then electroblotted on to PVDF membranes. Membranes were blocked with 3% BSA in PBS for 60 min and incubated with an anti-phospho-AMPK (Thr172) antibody (1:2,000, Cell signaling) or an anti-AMPK antibody (1:2,000, Cell signaling) at 4°C for 16 h followed by the corresponding secondary antibody for 1 h at room temperature (RT). Immunoreactive bands were detected by enhanced chemiluminescence and recorded using Kodak film. The detected signals were scanned and then quantified using TotalLab Quant software (TotalLab).

[4] = tested on: IL-6; test: LPS-induced inflammatory response in THP1 macrophages, secreted IL-6 (ELISA); format: cell-based, human; conditions: 50 ng LPS 6 hr
Description: (§2) Effects of adenine on inflammatory response were evaluated in human THP1 macrophage by examining protein level of intracellular COX-2 and secreted TNFα, IL-1β and IL-6. Differentiation of THP1 monocytes into macrophages was induced by 50 nM PMA for 24 hr. THP1 macrophages were further stimulated by 50 ng LPS for 6 hr in the presence of 10-600 µM of adenine or vehicle followed by cell lysis and western blot analysis. Equal amounts of protein were separated by SDS-PAGE and then electroblotted on to PVDF membranes. Membranes were blocked with 3% BSA in PBS for 60 min and incubated with an anti-COX-2 antibody (1:1,000, Cell signaling), an anti-actin antibody (1:5,000, Cell signaling) at 4° C for 16 h followed by the corresponding secondary antibody for 1 h at room temperature (RT). Immunoreactive bands were detected by enhanced chemiluminescence and recorded using Kodak film. The detected signals were scanned and then quantified using TotalLab Quant software (TotalLab). The secreted TNFα, IL-1β and IL-6 were analyzed by enzyme-linked immunosorbent assays.

[5] = tested on: IL-1β; test: LPS-induced inflammatory response in THP1 macrophages, secreted IL-1β (ELISA); format: cell-based, human; conditions: 50 ng LPS 6 hr
Description: as §2

[6] = tested on: Aβ infusion mice; test: Aβ-induced Alzheimer's disease model mice, Morris water maze assay; format: in vivo, C57BL/6J mice; conditions: AD mice, daily IP adenine 0.01, 0.1, 5 or 30 mg/kg for 4 weeks, vs control AD mice
Description: Aβ25-35 was purchased from Sigma-Aldrich (St. Louis, Missouri). The peptides were dissolved in distilled saline and aggregated by incubation at 37°C for 7 days before injection. C57BL/6J mice were maintained at 22° C under a 12-h light/dark cycle. Adult mice were anesthetized by ketamine (500 mg/kg) and xylazine (100 mg/kg) and placed in a stereotaxic frame. Five nmol of the aggregated Aβ25-35 were injected into the lateral ventricle using a 10 µl Hamilton syringe. The target anterior-posterior (AP), medial-lateral (ML) and dorsoventral coordinates were -0.5 mm, ±1 mm and -2.5 mm relative to the bregma. To evaluate the effect of adenine on neurodegenerative disease, Aβ infusion mice were daily intraperitoneally injected with 0.01, 0.1, 5 or 30 mg/kg bodyweight of adenine or vehicle for 4 weeks. The cognitive functions of these mice were analyzed by using Morris water maze assay after 4 weeks injection. The water maze was performed in a circular pool filled with water and a platform was submerged below the water's surface in the target quadrant for hidden platform test. During the 5-day hidden platform test, mice were randomly placed into starting points of the pool in each daily trial (6 trials per day). […] Mice were allowed to swim in the maze for 60 s and recorded by a video camera. The latency to find the platform and swim paths was analyzed by software.

SMILES: Nc1ncnc2nc[nH]c12 [Adenine, adenine]
- Cellnumber (% to control) ([1]; adenine 10 microM): 91±2.7 % to control
- Cellnumber (% to control) ([1]; adenine 50 microM): 73±8.1 % to control
- Cellnumber (% to control) ([1]; adenine 100 microM): 64±5.3 % to control
- Cellnumber (% to control) ([1]; adenine 200 microM): 48±2.8 % to control
- Cellnumber (% to control) ([1]; adenine 500 microM): 33±6.4 % to control
- Cellnumber (% to control) ([1]; adenine 1000 microM): 27±11.3 % to control
- IC50 [2]: 544 µM
- AMPK activation (fold to control) ([3]; adenine 1 microM): 1.1 fold to control
- AMPK activation (fold to control) ([3]; adenine 10 microM): 1.5 fold to control
- AMPK activation (fold to control) ([3]; adenine 100 microM): 2.9 fold to control
- AMPK activation (fold to control) ([3]; adenine 200 microM): 4.0 fold to control
- AMPK activation (fold to control) ([3]; adenine 600 microM): 4.2 fold to control
- IL-6 (% to control) ([4]; adenine 10 microM): 88±6.3 % to control
- IL-6 (% to control) ([4]; adenine 100 microM): 21±7.8 % to control
- IL-6 (% to control) ([4]; adenine 600 microM): 14±6.2 % to control
- IL-1β □ (%to control) ([5]; adenine 10 microM): 91±8.4 %to control
- IL-1β □ (%to control) ([5]; adenine 100 microM): 29±5.5 %to control
- IL-1β □ (%to control) ([5]; adenine 600 microM): 17±3.7 %to control
- time to find platform (hidden platform test) ([6]; dose-dependent): significantly shorter time
- percentage time in target quadrant (probe assay) [6]: higher percentage time
